Results on 29 molecules are retold here after patent US20230416205A1, “COMPOUNDS, COMPOSITIONS, AND METHODS” (Denali Therapeutics Inc, priority 2020, published 2023).

The assay concerns NLRP3. Nature of the assay: IL-1β secretion assay in PMA-differentiated, LPS/nigericin-stimulated THP-1 cells (384-well, ELISA read-out). The class given is cell-based, human. In short, it runs like this: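 Secreted IL-1β quantified by capture ELISA from supernatants of PMA-differentiated THP-1 cells (30K per well). Sequence: LPS 25 ng/mL priming 2 h, compound 1 h, nigericin 2 h; dose-responses normalized between high (LPS plus 5 μM nigericin) and low (LPS alone) controls.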
In general terms: In an ELISA, binding on a coated surface is turned into a signal by an enzyme label.

The mark [1] stands for this setting: Homo sapiens, THP-1, IL-1β secretion, PMA-differentiated THP-1 cells, LPS then nigericin stimulation, ELISA read at 450 nm, read-out: Activity.
[2] abbreviates: Homo sapiens, THP-1, Table 4, IL-1β secretion, LPS/nigericin-stimulated THP-1 cells, read-out: IC50.
Where [3] appears, read: IL-1β secretion, PMA-differentiated THP-1 cells, LPS then nigericin stimulation, ELISA read at 450 nm, read-out: Activity.
Where [4] appears, read: Table 4, IL-1β secretion, LPS/nigericin-stimulated THP-1 cells, read-out: IC50.

Molecules are shown by their SMILES. Where two headings read alike, the source gives them in different places.

In the case of `CN(Cc1cnn(C)c1)C(=O)CN1CC2(CC2)c2cc(Br)ccc2C1=O` [Example 123, 2-(6-bromo-1-oxospiro[3H-isoquinoline-4,1′-cyclopropane]-2-yl)-N-methyl-N-[(1-methylpyrazol-4-yl)methyl]acetamide], the IC50 by setting is: under setting [1], more than 15 µM; under setting [2], 34.9 µM.
Consider `O=C(CN1CC2(CC2)c2cc(CC3CC3)ccc2C1=O)Nc1ncc(F)cn1` [Example 423, 2-[6-(cyclopropylmethyl)-1-oxospiro[3H-isoquinoline-4,1′-cyclopropane]-2-yl]-N-(5-fluoropyrimidin-2-yl)acetamide], for which the IC50 under setting [2] was found to be 18.4 µM.
On to `CC1(C)CN(CC(=O)N[C@H]2C[C@@](C)(O)C2)C(=O)c2ccc(Br)cc21` [Example 46, 2-(6-bromo-4,4-dimethyl-1-oxo-3H-isoquinolin-2-yl)-N-(cis-3-hydroxy-3-methyl-cyclobutyl)acetamide], for which the IC50 by setting is: under setting [1], less than 10 µM; under setting [2], 1.54 µM.
Regarding `N#Cc1cc(F)cnc1NC(=O)CN1CC2(CC2)c2cc(Br)ccc2C1=O` [Example 392, 2-(6-bromo-1-oxospiro[3H-isoquinoline-4,1′-cyclopropane]-2-yl)-N-(3-cyano-5-fluoropyridin-2-yl)acetamide], under setting [2], the IC50 came out at 5.7 µM.
`O=C(CN1CC2(CC2)c2cc(Br)ccc2C1=O)NC1(CO)CC1` [Example 160, 2-(6-bromo-1-oxospiro[3H-isoquinoline-4,1′-cyclopropane]-2-yl)-N-[1-(hydroxymethyl)cyclopropyl]acetamide]: the IC50 is less than 10 µM under setting [1] and 4.2 µM under setting [2].
Turning to `O=C(CN1CC2(CC2)c2cc(Br)ccc2C1=O)Nc1ncc(C2CC2(F)F)cn1` (stereo not drawn) [Example 309, 2-(6-bromo-1-oxospiro[3H-isoquinoline-4,1′-cyclopropane]-2-yl)-N-[5-(2,2-difluorocyclopropyl)pyrimidin-2-yl]acetamide], under setting [2], the IC50 amounted to 0.696 µM.
Regarding `O=C(CN1CC2(CC2)c2cc(Br)ccc2C1=O)Nc1ccc2cnccc2n1` [Example 206, 2-(6-bromo-1-oxospiro[3H-isoquinoline-4,1′-cyclopropane]-2-yl)-N-(1,6-naphthyridin-2-yl)acetamide], the IC50 under setting [1] was less than 10 µM and the IC50 under setting [2] was determined as 1.26 µM.
As for `N#Cc1cnc(NC(=O)CN2CC3(CC3)c3cc(Br)ccc3C2=O)c(Cl)c1` [Example 395, 2-(6-bromo-1-oxospiro[3H-isoquinoline-4,1′-cyclopropane]-2-yl)-N-(3-chloro-5-cyanopyridin-2-yl)acetamide], the IC50 under setting [2] was 1.38 µM.
For `CC1CN(CC(=O)NC2CC(C)(O)C2)C(=O)c2ccc(Br)cc21` (stereo not drawn) [Example 69, 2-(6-bromo-4-methyl-1-oxo-3,4-dihydroisoquinolin-2-yl)-N-(cis-3-hydroxy-3-methyl-cyclobutyl)acetamide], the IC50 is, setting by setting: under setting [1], less than 10 µM; under setting [2], 0.643 µM.
Consider `O=C(CN1CC2(CC2)c2cc(C3CC3(F)F)ccc2C1=O)Nc1ncc(F)cn1` (stereo not drawn) [Example 88, 2-[6-(2,2-difluorocyclopropyl)-1-oxo-spiro[3H-isoquinoline-4,1′-cyclopropane]-2-yl]-N-(5-fluoropyrimidin-2-yl)acetamide], for which the IC50 is, setting by setting: under setting [1], less than 10 µM; under setting [2], 3.61 µM.
As for `O=C(CN1CC2(CC2)c2cc(Br)ccc2C1=O)Nc1ncc2c(n1)OCC2` [Example 329, 2-(6-bromo-1-oxospiro[3H-isoquinoline-4,1′-cyclopropane]-2-yl)-N-(5,6-dihydrofuro[2,3-d]pyrimidin-2-yl)acetamide], the IC50 under setting [2] stood at 0.93 µM.
For the molecule `O=C(CN1CC2(CC2)c2cc(Br)ccc2C1=O)Nc1nc2cc(C(F)(F)F)ccc2o1` [Example 358, 2-(6-bromo-1-oxospiro[3H-isoquinoline-4,1′-cyclopropane]-2-yl)-N-[5-(trifluoromethyl)-1,3-benzoxazol-2-yl]acetamide], the IC50 under setting [2] came to 1.29 µM.
In the case of `Cc1nc(-c2ccnc(NC(=O)CN3CC4(CC4)c4cc(Br)ccc4C3=O)n2)cs1` [Example 187, 2-(6-bromo-1-oxospiro[3H-isoquinoline-4,1′-cyclopropane]-2-yl)-N-[4-(2-methyl-1,3-thiazol-4-yl)pyrimidin-2-yl]acetamide], the IC50 under setting [1] was less than 10 µM and the IC50 under setting [2] came out at 0.871 µM.
The like results for `O=C(CN1CC2(CC2)c2cc([C@@]3(F)C[C@@H]3F)ccc2C1=O)Nc1ncc(F)cn1` (single isomer, unassigned) [Example 251, 2-[6-[(1r,2r)-1,2-difluorocyclopropyl]-1-oxospiro[3H-isoquinoline-4,1′-cyclopropane]-2-yl]-N-(5-fluoropyrimidin-2-yl)acetamide] were, in that order, less than 10 µM and 0.55 µM.
With `O=C(CN1CC2(CC2)c2cc([C@@]3(F)C[C@H]3F)ccc2C1=O)Nc1ncc(F)cn1` (single isomer, unassigned) [Example 254, 2-[6-[(1r,2s)-1,2-difluorocyclopropyl]-1-oxospiro[3H-isoquinoline-4,1′-cyclopropane]-2-yl]-N-(5-fluoropyrimidin-2-yl)acetamide], the IC50 under setting [3] is less than 10 µM and the IC50 under setting [4] stood at 0.434 µM.
For `O=C(CN1CC2(CC2)c2cc(Br)ccc2C1=O)Nc1ncc(C2=COCC2)cn1` [Example 424, 2-(6-bromo-1-oxospiro[3H-isoquinoline-4,1′-cyclopropane]-2-yl)-N-[5-(2,3-dihydrofuran-4-yl)pyrimidin-2-yl]acetamide], the IC50 under setting [2] turned out to be 0.7 µM.
As to `O=C(CN1CC2(CC2)c2cc(Br)ccc2C1=O)N[C@@H]1CCCN(C2CCC2)C1` [Example 70, 2-(6-bromo-1-oxo-spiro[3H-isoquinoline-4,1′-cyclopropane]-2-yl)-N-[(3R)-1-cyclobutyl-3-piperidyl]acetamide], the IC50 reads like this: under setting [1], less than 10 µM; under setting [2], 0.191 µM.
The like results for `O=C(CN1CC2(CC2)c2cc(OCF)ccc2C1=O)Nc1ncccn1` [Example 82, 2-[6-(fluoromethoxy)-1-oxospiro[3H-isoquinoline-4,1′-cyclopropane]-2-yl]-N-pyrimidin-2-ylacetamide] were, in that order, less than 10 µM and 2.22 µM.
As for `O=C(CN1CC2(CC2(F)F)c2c(ccc(Br)c2F)C1=O)Nc1ncc(C(F)(F)F)cn1` (single isomer, unassigned) [Example 323, 2-[6-bromo-1′,1′,5-trifluoro-1-oxospiro[3H-isoquinoline-4,2′-cyclopropane]-2-yl]-N-[5-(trifluoromethyl)pyrimidin-2-yl]acetamide], the IC50 under setting [4] is more than 10 µM.
Take `CC1(O)CCN(C(=O)CN2CC3(CC3)c3cc(Br)ccc3C2=O)C1` (stereo not drawn) [Example 68, 6-bromo-2-[2-(3-hydroxy-3-methyl-pyrrolidin-1-yl)-2-oxo-ethyl]spiro[3H-isoquinoline-4,1′-cyclopropane]-1-one]: the IC50 reads like this: under setting [1], more than 15 µM; under setting [2], 28.6 µM.
Consider `O=C(CN1CC(C(F)(F)F)c2c(ccc(Br)c2F)C1=O)Nc1ncc(F)cn1` (single isomer, unassigned) [Example 297, 2-[6-bromo-5-fluoro-1-oxo-4-(trifluoromethyl)-3,4-dihydroisoquinolin-2-yl]-N-(5-fluoropyrimidin-2-yl)acetamide], for which the IC50 runs as follows: under setting [1], 10 to 15 µM; under setting [4], 14.4 µM.
Consider `O=C(CN1CC(C(F)(F)F)c2cc(Br)ccc2C1=O)Nc1ncc(F)cn1` (single isomer, unassigned) [Example 300, 2-[6-bromo-1-oxo-4-(trifluoromethyl)-3,4-dihydroisoquinolin-2-yl]-N-(5-fluoropyrimidin-2-yl)acetamide], for which the IC50 was less than 10 µM under setting [3] and 3.43 µM under setting [4].
For `COc1ncc(F)c(NC(=O)CN2CC3(CC3)c3cc(Br)ccc3C2=O)n1` [Example 391, 2-(6-bromo-1-oxospiro[3H-isoquinoline-4,1′-cyclopropane]-2-yl)-N-(5-fluoro-2-methoxypyrimidin-4-yl)acetamide], the IC50 under setting [2] is 22.4 µM.
Regarding `O=C(CN1C[C@]2(C[C@H]2F)c2cc(Cl)ccc2C1=O)Nc1ncc(F)cn1` [Example 276], the IC50 under setting [1] was less than 10 µM and the IC50 under setting [2] turned out to be 0.079 µM.
Turning to `O=C(CN1C[C@@]2(C[C@@H]2F)c2cc(C(F)(F)F)ccc2C1=O)Nc1ncc(F)cn1` (single isomer, unassigned) [Example 235, 2-[(2′s,4r)-2′-fluoro-1-oxo-6-(trifluoromethyl)spiro[3H-isoquinoline-4,1′-cyclopropane]-2-yl]-N-(5-fluoropyrimidin-2-yl)acetamide], the IC50 reads like this: under setting [3], less than 10 µM; under setting [4], 0.85 µM.
On the same counts, the results for `O=C(CN1CC2(CC2)c2cc([C@@]3(F)C[C@@H]3F)ccc2C1=O)Nc1ncc(F)cn1` (single isomer, unassigned) [Example 252, 2-[6-[(1r,2r)-1,2-difluorocyclopropyl]-1-oxospiro[3H-isoquinoline-4,1′-cyclopropane]-2-yl]-N-(5-fluoropyrimidin-2-yl)acetamide] are less than 10 µM and 0.454 µM.
On to `O=C(CN1CC2(CC2)c2cc(Br)ccc2C1=O)NC1CC(OC(F)F)C1` (stereo not drawn) [Example 60, 2-(6-bromo-1-oxo-spiro[3H-isoquinoline-4,1′-cyclopropane]-2-yl)-N-[3-(difluoromethoxy)cyclobutyl]acetamide], for which the IC50 under setting [1] was less than 10 µM and the IC50 under setting [2] is 8.68 µM.
On to `COCC1CC(NC(=O)CN2CC3(CC3)c3cc(Br)ccc3C2=O)C1` (stereo not drawn) [Example 382, 2-(6-bromo-1-oxospiro[3H-isoquinoline-4,1′-cyclopropane]-2-yl)-N-[3-(methoxymethyl)cyclobutyl]acetamide], for which the IC50 under setting [2] was 8.79 µM.
In the case of `O=C(CN1CC(C(F)(F)F)c2c(ccc(Br)c2F)C1=O)Nc1ncc(F)cn1` (single isomer, unassigned) [Example 298, 2-[6-bromo-5-fluoro-1-oxo-4-(trifluoromethyl)-3,4-dihydroisoquinolin-2-yl]-N-(5-fluoropyrimidin-2-yl)acetamide], the IC50 runs as follows: under setting [3], less than 10 µM; under setting [4], 0.367 µM.
